US6673791B2, “Non-nucleoside reverse transcriptase inhibitors” (Boehringer Ingelheim (Canada) Ltd., priority 2001, dated 2004)
Like-named read-outs stand apart in the source and are kept apart here.

Legend:
[1] = molecular target: T1, K103N/Y181C double mutant RT (HIV-1 RT) (Human immunodeficiency virus type 1 group M subtype B, UniProt P03366, K702N/Y780C); assay: biochemical
T1 construct: mutations that occur in the reverse transcriptase segment of the pol gene
Text: (§1) Based upon testing of these compounds, as described below, it is known that they inhibit the RNA-dependent DNA polymerase activity of HIV-1 RT. […] Utilising the Reverse Transcriptase (RT) Assay described below, compounds can be tested for their ability to inhibit the RNA-dependent DNA polymerase activity of HIV-1 RT. Certain specific compounds described in the Examples which appear below, were so tested. The results of this testing appear in Table 4 as IC50 (nM) and Table 5 as EC50 (nM).
(§2) Reverse TranscriptASE (RT) Assays
(§3) The assays are as described in WO 01/96338A1, the contents of which are hereby incorporated herein. The results are listed in Tables 8 as IC50(nM) and EC50(nM).

[2] = molecular target: T2, V106A mutant RT (HIV-1 RT) (Human immunodeficiency virus type 1 group M subtype B, UniProt P03366, V705A); assay: biochemical
T2 construct: mutations that occur in the reverse transcriptase segment of the pol gene
Text: as §1, §2, §3

WT RT (HIV-1 RT) = molecular target: T3, WT RT (HIV-1 RT) (Human immunodeficiency virus type 1 group M subtype B, UniProt P03366); assay: biochemical
T3 construct: mutations that occur in the reverse transcriptase segment of the pol gene
Text: as §1, §2, §3

[3] = molecular target: T4, Y188L mutant RT (HIV-1 RT) (Human immunodeficiency virus type 1 group M subtype B, UniProt P03366, Y787L); assay: biochemical
T4 construct: mutations that occur in the reverse transcriptase segment of the pol gene
Text: as §1, §2, §3

[4] = test system: WT RT (HIV-1 wild type strain); assay: EC50 assay, WT RT strain; assay type: cell-based
Text: as §2, §3

[5] = test system: K103N/Y181C (HIV-1 double mutant strain); assay: EC50 assay, K103N/Y181C strain; assay type: cell-based
Text: as §2, §3

[6] = Human immunodeficiency virus 1, read-out: EC50 WT RT (nM)
[7] = Human immunodeficiency virus 1, read-out: EC50 K103N/Y181C (nM), K103N/Y181C double mutant

CCN1c2ncc(CCOc3ccc(CC(=O)O)c4ccccc34)cc2C(=O)N(C)c2ccc(F)nc21 [Entry 1009]
IC50 [1]: 100 to 1000 nM | IC50 ([2]; IC50 V106A (nM)): > 1000 nM | IC50 (WT RT (HIV-1 RT)): < 100 nM | IC50 ([3]; IC50 Y188L (nM)): > 1000 nM | EC50 [4, 6]: < 100 nM | EC50 [5, 7]: < 100 nM

CCN1c2ncc(CCOc3ccc(CC(=O)O)c4ccccc34)cc2C(=O)N(C)c2ccc(Cl)nc21 [Entry 1010]
IC50 [1]: 100 to 1000 nM | IC50 ([2]; IC50 V106A (nM)): > 1000 nM | IC50 (WT RT (HIV-1 RT)): < 100 nM | IC50 ([3]; IC50 Y188L (nM)): > 1000 nM | EC50 [4, 6]: < 100 nM | EC50 [5, 7]: < 100 nM

CCN1c2ncc(CCOc3ccc(CC(=O)O)c4ccccc34)cc2C(=O)Nc2c(C)cc(Cl)nc21 [Entry 1012]
IC50 [1]: 100 to 1000 nM | IC50 ([2]; IC50 V106A (nM)): 100 to 1000 nM | IC50 (WT RT (HIV-1 RT)): < 100 nM | IC50 ([3]; IC50 Y188L (nM)): > 1000 nM | EC50 [4, 6]: < 100 nM | EC50 [5, 7]: 100 to 1000 nM

CCN1c2ncc(CCOc3ccc(CC(=O)NN)c4ccccc34)cc2C(=O)N(C)c2cccnc21 [Entry 1015]
IC50 [1]: < 100 nM | IC50 ([2]; IC50 V106A (nM)): 100 to 1000 nM | IC50 (WT RT (HIV-1 RT)): < 100 nM | IC50 ([3]; IC50 Y188L (nM)): 100 to 1000 nM | EC50 [4, 6]: < 100 nM | EC50 [5, 7]: < 100 nM

CCN1c2ncc(CCOc3ccc(CC(=O)NN)c4ccccc34)cc2C(=O)N(C)c2ccc(Cl)nc21 [Entry 1016]
IC50 [1]: < 100 nM | IC50 ([2]; IC50 V106A (nM)): 100 to 1000 nM | IC50 (WT RT (HIV-1 RT)): < 100 nM | IC50 ([3]; IC50 Y188L (nM)): 100 to 1000 nM | EC50 [4, 6]: < 100 nM | EC50 [5, 7]: < 100 nM

CCN1c2ncc(CCOc3ccc(CC(=O)NS(C)(=O)=O)c4ccccc34)cc2C(=O)N(C)c2cccnc21 [Entry 1019]
IC50 ([1]; K103N/Y181C double mutant RT, read-out: IC50 K103N/Y181C): 100 to 1000 nM | IC50 ([2]; read-out: IC50 V106A): > 1000 nM | IC50 (WT RT (HIV-1 RT); wild type RT, read-out: IC50 WT RT): < 100 nM | IC50 ([3]; read-out: IC50 Y188L): > 1000 nM | EC50 ([4]; wild type, read-out: EC50 WT RT): < 100 nM | EC50 ([5]; K103N/Y181C double mutant, read-out: EC50 K103N/Y181C): 100 to 1000 nM

CCN1c2ncc(CCOc3ccc(C(C)C(=O)O)c4ccccc34)cc2C(=O)N(C)c2cccnc21 (stereo not drawn) [Entry 1020]
IC50 [1]: 100 to 1000 nM | IC50 ([2]; IC50 V106A (nM)): > 1000 nM | IC50 (WT RT (HIV-1 RT)): < 100 nM | IC50 ([3]; IC50 Y188L (nM)): > 1000 nM | EC50 [4, 6]: < 100 nM | EC50 [5, 7]: < 100 nM

CCN1c2ncc(CCOc3ccc(CCC(=O)O)c4ccccc34)cc2C(=O)N(C)c2cccnc21 [Entry 1021]
IC50 [1]: 100 to 1000 nM | IC50 ([2]; IC50 V106A (nM)): > 1000 nM | IC50 (WT RT (HIV-1 RT)): < 100 nM | IC50 ([3]; IC50 Y188L (nM)): > 1000 nM | EC50 [4, 6]: < 100 nM | EC50 [5, 7]: < 100 nM

CCN1c2ncc(CCOc3ccc(CCC(=O)O)c4ccccc34)cc2C(=O)N(C)c2ccc(Cl)nc21 [Entry 1022]
IC50 [1]: 100 to 1000 nM | IC50 ([2]; IC50 V106A (nM)): 100 to 1000 nM | IC50 (WT RT (HIV-1 RT)): < 100 nM | IC50 ([3]; IC50 Y188L (nM)): > 1000 nM | EC50 [4, 6]: < 100 nM | EC50 [5, 7]: < 100 nM

CCN1c2ncc(CCOc3ccc(CCC(=O)O)c4ccccc34)cc2C(=O)N(C)c2ccc(F)nc21 [Entry 1023]
IC50 [1]: 100 to 1000 nM | IC50 ([2]; IC50 V106A (nM)): > 1000 nM | IC50 (WT RT (HIV-1 RT)): < 100 nM | IC50 ([3]; IC50 Y188L (nM)): > 1000 nM | EC50 [4, 6]: < 100 nM | EC50 [5, 7]: < 100 nM

CCN1c2ncc(CCOc3ccc(CCC(=O)O)c4ccccc34)cc2C(=O)Nc2c(C)cc(Cl)nc21 [Entry 1025]
IC50 [1]: 100 to 1000 nM | IC50 ([2]; IC50 V106A (nM)): 100 to 1000 nM | IC50 (WT RT (HIV-1 RT)): < 100 nM | IC50 ([3]; IC50 Y188L (nM)): > 1000 nM | EC50 [4, 6]: < 100 nM | EC50 [5, 7]: 100 to 1000 nM

CCN1c2ncc(CCOc3ccc(/C=C/C(=O)O)c4ccccc34)cc2C(=O)N(C)c2cccnc21 [Entry 1028]
IC50 [1]: 100 to 1000 nM | IC50 ([2]; IC50 V106A (nM)): > 1000 nM | IC50 (WT RT (HIV-1 RT)): < 100 nM | IC50 ([3]; IC50 Y188L (nM)): 100 to 1000 nM | EC50 [4, 6]: < 100 nM | EC50 [5, 7]: < 100 nM

CCN1c2ncc(CCOc3ccc(/C=C/C(=O)O)c4ccccc34)cc2C(=O)N(C)c2ccc(Cl)nc21 [Entry 1029]
IC50 [1]: 100 to 1000 nM | IC50 ([2]; IC50 V106A (nM)): 100 to 1000 nM | IC50 (WT RT (HIV-1 RT)): < 100 nM | IC50 ([3]; IC50 Y188L (nM)): 100 to 1000 nM | EC50 [4, 6]: < 100 nM | EC50 [5, 7]: < 100 nM

CCN1c2ncc(CCOc3ccc(/C=C/C(=O)O)c4ccccc34)cc2C(=O)Nc2c(C)cc(Cl)nc21 [Entry 1030]
IC50 [1]: 100 to 1000 nM | IC50 ([2]; IC50 V106A (nM)): < 100 nM | IC50 (WT RT (HIV-1 RT)): < 100 nM | IC50 ([3]; IC50 Y188L (nM)): > 1000 nM | EC50 [4, 6]: < 100 nM | EC50 [5, 7]: < 100 nM

CCN1c2ncc(CCOc3ccc(/C=C/C(=O)O)c4ccccc34)cc2C(=O)Nc2c(C)ccnc21 [Entry 1031]
IC50 [1]: 100 to 1000 nM | IC50 ([2]; IC50 V106A (nM)): 100 to 1000 nM | IC50 (WT RT (HIV-1 RT)): < 100 nM | IC50 ([3]; IC50 Y188L (nM)): > 1000 nM | EC50 [4, 6]: < 100 nM | EC50 [5, 7]: < 100 nM

CCN1c2ncc(CCOc3ccc(/C=C/C(=O)O)c4ccccc34)cc2C(=O)N(C)c2ccc(F)nc21 [Entry 1032]
IC50 [1]: 100 to 1000 nM | IC50 ([2]; IC50 V106A (nM)): 100 to 1000 nM | IC50 (WT RT (HIV-1 RT)): < 100 nM | IC50 ([3]; IC50 Y188L (nM)): 100 to 1000 nM | EC50 [4, 6]: < 100 nM | EC50 [5, 7]: < 100 nM
